Where two headings read alike, the source gives them in different places.
How the values were obtained:
p38α MAPK = p38α MAPK (Homo sapiens, UniProt Q16539); assay: p38α MAPK enzyme-linked immunosorbent assay; assay type: biochemical; conditions: for inhibition at 10 µM: read-out: Percent inhibition of p38α MAPK at indicated concentration
JNK3 = JNK3 (Homo sapiens, UniProt P53779); assay: JNK3 enzyme-linked immunosorbent assay; assay type: biochemical
Sequence of JNK3 (P53779 whole entry): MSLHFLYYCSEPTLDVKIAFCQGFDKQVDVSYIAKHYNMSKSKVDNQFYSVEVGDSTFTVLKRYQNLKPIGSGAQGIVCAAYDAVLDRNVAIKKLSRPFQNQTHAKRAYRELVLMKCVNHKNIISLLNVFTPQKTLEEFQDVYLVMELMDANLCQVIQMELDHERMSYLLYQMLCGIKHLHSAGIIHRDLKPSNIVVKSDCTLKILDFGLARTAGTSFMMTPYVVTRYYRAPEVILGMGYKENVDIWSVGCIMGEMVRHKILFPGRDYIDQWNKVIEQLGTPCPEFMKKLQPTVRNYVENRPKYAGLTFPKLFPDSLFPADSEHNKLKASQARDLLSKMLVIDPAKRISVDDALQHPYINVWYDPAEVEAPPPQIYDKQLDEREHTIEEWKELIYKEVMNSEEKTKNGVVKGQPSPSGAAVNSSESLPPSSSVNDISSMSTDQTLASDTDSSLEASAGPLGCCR

Sequence of p38α MAPK (Q16539 whole entry): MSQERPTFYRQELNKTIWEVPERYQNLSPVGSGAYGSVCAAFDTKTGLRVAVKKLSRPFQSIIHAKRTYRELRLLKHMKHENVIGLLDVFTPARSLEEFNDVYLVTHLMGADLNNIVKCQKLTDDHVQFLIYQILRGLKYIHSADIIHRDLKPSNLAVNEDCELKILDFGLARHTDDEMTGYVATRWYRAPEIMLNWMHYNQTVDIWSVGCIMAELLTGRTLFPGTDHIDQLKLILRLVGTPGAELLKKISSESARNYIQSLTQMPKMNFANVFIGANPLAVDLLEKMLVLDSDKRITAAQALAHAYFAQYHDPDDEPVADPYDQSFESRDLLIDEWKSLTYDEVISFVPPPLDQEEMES

| SMILES | IC50 (p38α MAPK) [nM] | fold higher activity for p38α MAPK than for JNK3 (p38α MAPK; ratio of IC50 values) [fold] | IC50 (JNK3) [nM] | IC50 (JNK3; read-out: IC50 ± SD JNK3, ELISA, mean of three experiments (SP600125 n = 16)) [nM] | inhibition at 10 µM (p38α MAPK) [%] | inhibition at 10 µM (JNK3; read-out: Percent inhibition of JNK3 at indicated concentration) [%] | fold drop in potency on JNK3 versus parent compound 44 (JNK3) [fold] |
| --- | --- | --- | --- | --- | --- | --- | --- |
| c1cc(-c2[nH]cnc2C2CCCCC2)cc(Nc2ccc(N3CCOCC3)cc2)n1 [Compound 18g, 4-(4-Cyclohexyl-1H-imidazol-5-yl)-N-(4-morpholinophenyl)pyridin-2-amine] | 726 ± 21 | 2 | 1720 | – | – | – | – |
| c1cc(-c2[nH]cnc2C2CCCC2)cc(Nc2ccc(N3CCOCC3)cc2)n1 [Compound 18h, 4-(4-Cyclopentyl-1H-imidazol-5-yl)-N-(4-morpholinophenyl)pyridin-2-amine] | 1720 | – | – | 2190 | – | – | – |
| c1cc(-c2[nH]cnc2C2CCC2)cc(Nc2ccc(N3CCOCC3)cc2)n1 [Compound 18i, 4-(4-Cyclobutyl-1H-imidazol-5-yl)-N-(4-morpholinophenyl)pyridin-2-amine] | 2260 | – | 1760 | – | – | – | – |
| c1cc(-c2[nH]cnc2C2CC2)cc(Nc2ccc(N3CCOCC3)cc2)n1 [Compound 18j, 4-(4-Cyclopropyl-1H-imidazol-5-yl)-N-(4-morpholinophenyl)pyridin-2-amine] | 4020 | – | 1080 | – | – | – | – |
| CC(C)(C)c1nc[nH]c1-c1ccnc(Nc2ccc(N3CCOCC3)cc2)c1 [Compound 18k, 4-(4-(tert-Butyl)-1H-imidazol-y-yl)-N-(4-morpholinophenyl)pyridin-2-amine] | > 10000 | – | > 10000 | – | 41 | 32 | – |
| CC(C)c1nc[nH]c1-c1ccnc(Nc2ccc(N3CCOCC3)cc2)c1 [Compound 18l, 4-(4-Isopropyl-1H-imidazol-5-yl)-N-(4-morpholinophenyl)pyridin-2-amine] | 10000 | – | 2830 | – | 50 | – | – |
| Cc1nc[nH]c1-c1ccnc(Nc2ccc(N3CCOCC3)cc2)c1 [Compound 38, 4-(4-Methyl-1H-imidazol-5-yl)-N-(4-morpholinophenyl)pyridin-2-amine] | > 10000 | – | 833 ± 139 | – | 41 | – | – |
| CSc1ncc(-c2ccnc(Nc3ccc(N4CCOCC4)cc3)c2)[nH]1 [Compound 43, 4-(2-(Methylthio)-1H-imidazol-5-yl)-N-(4-morpholinophenyl)pyridin-2-amine] | > 10000 | – | 562 ± 21 | – | 43 | – | – |
| CCc1nc(SC)[nH]c1-c1ccnc(Nc2ccc(N3CCOCC3)cc2)c1 [Compound 45, 4-(4-Ethyl-2-(methylthio)-1H-imidazol-5-yl)-N-(4-morpholinophenyl)pyridin-2-amine] | > 10000 | – | 1100 | – | 38 | – | – |
| CSc1nc(-c2ccnc(Nc3ccc(N4CCOCC4)cc3)c2)c(C)n1C [Compound 50, 4-(1,5-Dimethyl-2-(methylthio)-1H-imidazol-4-yl)-N-(4-morpholinophenyl)pyridin-2-amine] | > 10000 | – | 1280 | – | 37 | – | – |
| CSc1nc(C)c(-c2ccnc(Nc3ccc(N4CCOCC4)cc3)c2)n1C [Compound 57, 4-(1,4-Dimethyl-2-(methylthio)-1H-imidazol-5-yl)-N-(4-morpholinophenyl)pyridin-2-amine] | > 10000 | – | 2510 | – | 10 | – | – |

More lines, now with the values ahead:

| IC50 (p38α MAPK) [nM] | fold higher activity for p38α MAPK than for JNK3 (p38α MAPK; ratio of IC50 values) [fold] | IC50 (JNK3) [nM] | IC50 (JNK3; read-out: IC50 ± SD JNK3, ELISA, mean of three experiments (SP600125 n = 16)) [nM] | inhibition at 10 µM (p38α MAPK) [%] | inhibition at 10 µM (JNK3; read-out: Percent inhibition of JNK3 at indicated concentration) [%] | fold drop in potency on JNK3 versus parent compound 44 (JNK3) [fold] | SMILES |
| --- | --- | --- | --- | --- | --- | --- | --- |
| > 10000 | – | 2590 | – | 34 | – | – | CSc1nc(C)c(-c2ccnc(NC(C)C(C)C)c2)[nH]1 (stereo not shown) [Compound 48a, 4-(4-Methyl-2-(methylthio)-1H-imidazol-5-yl)-N-(3-methylbutan-2-yl)pyridin-2-amine] |
| 3460 | – | 7610 | – | – | – | – | CSc1nc(C)c(-c2ccnc(NC(C)c3ccccc3)c2)[nH]1 (stereo not shown) [Compound 48b, 4-(4-Methyl-2-(methylthio)-1H-imidazol-5-yl)-N-(1-phenylethyl)pyridin-2-amine] |
| > 10000 | – | 3040 | – | 36 | – | – | CSc1nc(C)c(-c2ccnc(NC3CCC3)c2)[nH]1 [Compound 48c, N-Cyclobutyl-4-(4-methyl-2-(methylthio)-1H-imidazol-5-yl)pyridin-2-amine] |
| > 10000 | – | 1570 | – | 47 | – | – | CSc1nc(C)c(-c2ccnc(NC3CCCC3)c2)[nH]1 [Compound 48d, N-Cyclopentyl-4-(4-methyl-2-(methylthio)-1H-imidazol-5-yl)pyridin-2-amine] |
| > 10000 | – | 671 ± 74 | – | 31 | – | – | CSc1nc(C)c(-c2ccnc(NC3CCCCC3)c2)[nH]1 [Compound 48e, N-Cyclohexyl-4-(4-methyl-2-(methylthio)-1H-imidazol-5-yl)pyridin-2-amine] |
| > 10000 | – | 457 ± 72 | – | 35 | – | – | CSc1nc(C)c(-c2ccnc(N[C@H]3CC[C@H](O)CC3)c2)[nH]1 [Compound 48g, trans-4-((4-(4-Methyl-2-(methylthio)-1H-imidazol-5-yl)pyridin-2-yl)amino)cyclohexan-1-ol] |
| > 10000 | – | 941 ± 75 | – | 46 | – | 3 | CSc1nc(C)c(-c2ccnc(N[C@H]3CC[C@H](N)CC3)c2)[nH]1 [Compound 48h, trans-N1-(4-(4-Methyl-2-(methylthio)-1H-imidazol-5-yl)pyridin-2-yl)cyclohexane-1,4-diamine] |
| > 10000 | – | 819 ± 141 | – | 37 | – | – | CSc1nc(C)c(-c2ccnc(N[C@H]3CC[C@H](NC(C)=O)CC3)c2)[nH]1 [Compound 48i, N-(trans-4-((4-(4-Methyl-2-(methylthio)-1H-imidazol-5-yl)pyridin-2-yl)amino)cyclohexyl)acetamide] |
| > 10000 | – | 2230 | – | 10 | – | – | CSc1nc(C)c(-c2ccnc(N[C@H]3CC[C@H](NC(=O)C4CCCCC4)CC3)c2)[nH]1 [Compound 48k, N-(trans-4-((4-(4-Methyl-2-(methylthio)-1H-imidazol-5-yl)pyridin-2-yl)amino)cyclohexyl)cyclohexanecarboxamide] |
| > 10000 | – | 353 ± 58 | – | 38 | – | – | CSc1nc(C)c(-c2ccnc(Nc3ccc(N)cc3)c2)[nH]1 [Compound 48m, N1-(4-(4-Methyl-2-(methylthio)-1H-imidazol-5-yl)pyridin-2-yl)benzene-1,4-diamine] |
| > 10000 | – | 415 ± 40 | – | 32 | – | – | CSc1nc(C)c(-c2ccnc(Nc3ccc(NC(C)=O)cc3)c2)[nH]1 [Compound 48n, N-(4-((4-(4-Methyl-2-(methylthio)-1H-imidazol-5-yl)pyridin-2-yl)amino)phenyl)acetamide] |
| > 10000 | – | 432 ± 37 | – | 33 | – | – | CSc1nc(C)c(-c2ccnc(Nc3ccc(NC(=O)c4ccccc4)cc3)c2)[nH]1 [Compound 48o, N-(4-((4-(4-Methyl-2-(methylthio)-1H-imidazol-5-yl)pyridin-2-yl)amino)phenyl)benzamide] |
| > 10000 | – | 1540 | – | 27 | – | – | CSc1nc(C)c(-c2ccnc(Nc3ccc(NC(=O)C4CCCCC4)cc3)c2)[nH]1 [Compound 48p, N-(4-((4-(4-Methyl-2-(methylthio)-1H-imidazol-5-yl)pyridin-2-yl)amino)phenyl)cyclohexanecarboxamide] |
| > 10000 | – | 2370 | – | 15 | – | – | CSc1nc(C)c(-c2ccnc(Nc3ccc(NC(=O)C(C)(C)C)cc3)c2)[nH]1 [Compound 48q, N-(4-((4-(4-Methyl-2-(methylthio)-1H-imidazol-5-yl)pyridin-2-yl)amino)phenyl)pivalamide] |
